Results reported in patent publication US10463670B2, “Use of non-peptide NK1 antagonists in a predetermined dose for the treatment of cancer” (SERVICIO ANDALUZ DE SALUD, priority 2013, dated 2019).

How the values were obtained:
[1] = test system: human lymphoma; reference BC-1; assay: Lymphoma BC-1 tumours implanted s.c. in nude mice, Aprepitant alone; assay type: in vivo
Procedure: (§1) Immunocompromised female mice, 5-6 weeks of age were used, nu/nu Balb/c nude mice, provided by Harlan Iberica Barcelona (Spain). They were kept at 24° C. and in sterile conditions with food and water “ad libitum”. They were injected with 2×10^7 tumour cells, corresponding to cancer (human lung cancer, reference HCC-44 supplied by DSMZ) in 200 μl of PBS subcutaneous route. The tumour size was measured and the mice were evaluated for their state of health and weight daily. The mice were randomized in nine groups when the tumours reached a volume of 75 mm^3. One of the groups was treated with 200 μl of placebo (control group) and the eight remaining groups with doses of 10 (group 1), 20 (group 2), 30 (group 3), 40 (group 4), 50 (group 5), 60 (group 6), 70 (group 7) and 80 (group 8) mg per kilogram of weight and day of the NK1 receptor antagonist Aprepitant. 3 animals were treated per group, during 28 days. All the mice were sacrificed at the end of the experiment.
(§2) Immunocompromised female mice, 5-6 weeks of age were used, in the same conditions as explained in example 1. They were injected with 2×10^7 tumour cells, corresponding to a haematological cell line tumour (human lymphoma; reference BC-1; supplied by DSMZ) in 200 μl of PBS by subcutaneous route. The tumour size was measured and the mice were evaluated for their state of health and weight daily. The mice were randomized in nine groups when the tumours reached a volume of 75 mm^3. One of the groups was treated with 200 μl of placebo (control group) and the eight remaining groups with doses of 10 (group 1), 20 (group 2), 30 (group 3), 40 (group 4), 50 (group 5), 60 (group 6), 70 (group 7) and 80 (group 8) mg per kilogram of weight and day of the NK1 receptor antagonist Aprepitant. 3 animals were treated per group, during 28 days. All the mice were sacrificed at the end of the experiment.

Human breast cancer MT-3 = assay: MTS cell proliferation, nanomolar antagonist, MT-3; assay type: cell-based; details: Aprepitant 1, 5 and 7 nM, vs cells grown in the absence of antagonist, time dependant
Procedure: Cell cultures of various commercial tumour cell lines stated in table 13 were used. [table] […] The number of cells was quantified using a Coulter counter. […] The culture plates were grown in the presence of increasing concentrations of non-peptide NK1 receptor antagonists. To obtain the staining in the proliferation assays, 20 μl of MTS were added to each one of the wells of the cell culture plates 90 minutes before reading the samples in a multiscan spectrophotometer (TECAN Spectra classic, Barcelona, Spain) at 492 nm (assay wavelength) and 690 nm (reference wavelength). The different doses were tested in duplicate and each experiment was performed in triplicate. The antagonist Aprepitant was used at the following concentrations: 1 nanomolar -nM-, 5 nanomolar -nM- and 7 nanomolar -nM-. […] As proliferation control, the cells were grown in the absence of said antagonist. This is expressed in FIGS. 1 to 10.

[2] = test system: human fibrosarcoma; reference HT-1080; assay: Fibrosarcoma HT-1080 tumours implanted s.c. in nude mice, Aprepitant alone; assay type: in vivo
Procedure: as §1
as §2, with “mesenchymal” for “haematological”, “fibrosarcoma;” for “lymphoma;”, “HT-1080;” for “BC-1;”

[3] = Aprepitant 10 mg/kg/day, 7 days
[4] = Aprepitant 10 mg/kg/day, 14 days
[5] = Aprepitant 10 mg/kg/day, 21 days
[6] = Aprepitant 10 mg/kg/day, 28 days
[7] = Aprepitant 20 mg/kg/day, 7 days
[8] = Aprepitant 20 mg/kg/day, 14 days
[9] = Aprepitant 20 mg/kg/day, 21 days
[10] = Aprepitant 20 mg/kg/day, 28 days
[11] = Aprepitant 30 mg/kg/day, 7 days
[12] = Aprepitant 30 mg/kg/day, 14 days
[13] = Aprepitant 30 mg/kg/day, 21 days
[14] = Aprepitant 30 mg/kg/day, 28 days
[15] = Aprepitant 40 mg/kg/day, 7 days
[16] = Aprepitant 40 mg/kg/day, 14 days
[17] = Aprepitant 40 mg/kg/day, 21 days
[18] = Aprepitant 40 mg/kg/day, 28 days
[19] = Aprepitant 50 mg/kg/day, 7 days
[20] = Aprepitant 50 mg/kg/day, 14 days
[21] = Aprepitant 50 mg/kg/day, 21 days
[22] = Aprepitant 50 mg/kg/day, 28 days
[23] = Aprepitant 60 mg/kg/day, 7 days
[24] = Aprepitant 60 mg/kg/day, 14 days
[25] = Aprepitant 60 mg/kg/day, 21 days
[26] = Aprepitant 60 mg/kg/day, 28 days
[27] = Aprepitant 70 mg/kg/day, 7 days
[28] = Aprepitant 70 mg/kg/day, 14 days
[29] = Aprepitant 70 mg/kg/day, 21 days
[30] = Aprepitant 70 mg/kg/day, 28 days
[31] = Aprepitant 80 mg/kg/day, 7 days
[32] = Aprepitant 80 mg/kg/day, 14 days
[33] = Aprepitant 80 mg/kg/day, 21 days
[34] = Aprepitant 80 mg/kg/day, 28 days

## C[C@@H](O[C@H]1OCCN(Cc2n[nH]c(=O)[nH]2)[C@H]1c1ccc(F)cc1)c1cc(C(F)(F)F)cc(C(F)(F)F)c1 [Aprepitant]
[1]; [3]
  Tumour size (mean volume of the tumour): 210 ± 3 cubic millimeters
[1]; [4]
  Tumour size (mean volume of the tumour): 195 ± 6 cubic millimeters
[1]; [5]
  Tumour size (mean volume of the tumour): 175 ± 7 cubic millimeters
[1]; [6]
  Tumour size (mean volume of the tumour): 170 ± 6 cubic millimeters
[1]; [7]
  Tumour size (mean volume of the tumour): 195 ± 6 cubic millimeters
[1]; [8]
  Tumour size (mean volume of the tumour): 175 ± 7 cubic millimeters
[1]; [9]
  Tumour size (mean volume of the tumour): 160 ± 6 cubic millimeters
[1]; [10]
  Tumour size (mean volume of the tumour): 150 ± 7 cubic millimeters
[1]; [11]
  Tumour size (mean volume of the tumour): 180 ± 7 cubic millimeters
[1]; [12]
  Tumour size (mean volume of the tumour): 155 ± 4 cubic millimeters
[1]; [13]
  Tumour size (mean volume of the tumour): 145 ± 8 cubic millimeters
[1]; [14]
  Tumour size (mean volume of the tumour): 140 ± 4 cubic millimeters
[1]; [15]
  Tumour size (mean volume of the tumour): 165 ± 8 cubic millimeters
[1]; [16]
  Tumour size (mean volume of the tumour): 165 ± 6 cubic millimeters
[1]; [17]
  Tumour size (mean volume of the tumour): 130 ± 5 cubic millimeters
[1]; [18]
  Tumour size (mean volume of the tumour): 110 ± 6 cubic millimeters
[1]; [19]
  Tumour size (mean volume of the tumour): 150 ± 5 cubic millimeters
[1]; [20]
  Tumour size (mean volume of the tumour): 145 ± 7 cubic millimeters
[1]; [21]
  Tumour size (mean volume of the tumour): 120 ± 6 cubic millimeters
[1]; [22]
  Tumour size (mean volume of the tumour): 100 ± 7 cubic millimeters
[1]; [23]
  Tumour size (mean volume of the tumour): 130 ± 6 cubic millimeters
[1]; [24]
  Tumour size (mean volume of the tumour): 130 ± 8 cubic millimeters
[1]; [25]
  Tumour size (mean volume of the tumour): 100 ± 7 cubic millimeters
[1]; [26]
  Tumour size (mean volume of the tumour): 85 ± 4 cubic millimeters
[1]; [27]
  Tumour size (mean volume of the tumour): 110 ± 4 cubic millimeters
[1]; [28]
  Tumour size (mean volume of the tumour): 105 ± 4 cubic millimeters
[1]; [29]
  Tumour size (mean volume of the tumour): 80 ± 5 cubic millimeters
[1]; [30]
  Tumour size (mean volume of the tumour): 80 ± 7 cubic millimeters
[1]; [31]
  Tumour size (mean volume of the tumour): 95 ± 6 cubic millimeters
[1]; [32]
  Tumour size (mean volume of the tumour): 85 ± 6 cubic millimeters
[1]; [33]
  Tumour size (mean volume of the tumour): 65 ± 3 cubic millimeters
[1]; [34]
  Tumour size (mean volume of the tumour): 65 ± 9 cubic millimeters
Human breast cancer MT-3
  Proliferation of tumour cells (MTS): increase was observed of proliferation
[2]; [3]
  Tumour size (mean volume of the tumour): 220 ± 4 cubic millimeters
[2]; [4]
  Tumour size (mean volume of the tumour): 205 ± 4 cubic millimeters
[2]; [5]
  Tumour size (mean volume of the tumour): 195 ± 6 cubic millimeters
[2]; [6]
  Tumour size (mean volume of the tumour): 170 ± 6 cubic millimeters
[2]; [7]
  Tumour size (mean volume of the tumour): 195 ± 5 cubic millimeters
[2]; [8]
  Tumour size (mean volume of the tumour): 180 ± 5 cubic millimeters
[2]; [9]
  Tumour size (mean volume of the tumour): 165 ± 7 cubic millimeters
[2]; [10]
  Tumour size (mean volume of the tumour): 150 ± 7 cubic millimeters
[2]; [11]
  Tumour size (mean volume of the tumour): 175 ± 5 cubic millimeters
[2]; [12]
  Tumour size (mean volume of the tumour): 155 ± 6 cubic millimeters
[2]; [13]
  Tumour size (mean volume of the tumour): 135 ± 5 cubic millimeters
[2]; [14]
  Tumour size (mean volume of the tumour): 140 ± 4 cubic millimeters
[2]; [15]
  Tumour size (mean volume of the tumour): 160 ± 4 cubic millimeters
[2]; [16]
  Tumour size (mean volume of the tumour): 150 ± 3 cubic millimeters
[2]; [17]
  Tumour size (mean volume of the tumour): 120 ± 5 cubic millimeters
[2]; [18]
  Tumour size (mean volume of the tumour): 110 ± 6 cubic millimeters
[2]; [19]
  Tumour size (mean volume of the tumour): 145 ± 5 cubic millimeters
[2]; [20]
  Tumour size (mean volume of the tumour): 135 ± 7 cubic millimeters
[2]; [21]
  Tumour size (mean volume of the tumour): 100 ± 3 cubic millimeters
[2]; [22]
  Tumour size (mean volume of the tumour): 100 ± 7 cubic millimeters
[2]; [23]
  Tumour size (mean volume of the tumour): 135 ± 7 cubic millimeters
[2]; [24]
  Tumour size (mean volume of the tumour): 120 ± 6 cubic millimeters
[2]; [25]
  Tumour size (mean volume of the tumour): 90 ± 8 cubic millimeters
[2]; [26]
  Tumour size (mean volume of the tumour): 85 ± 4 cubic millimeters
[2]; [27]
  Tumour size (mean volume of the tumour): 120 ± 8 cubic millimeters
[2]; [28]
  Tumour size (mean volume of the tumour): 100 ± 4 cubic millimeters
[2]; [29]
  Tumour size (mean volume of the tumour): 85 ± 6 cubic millimeters
[2]; [30]
  Tumour size (mean volume of the tumour): 80 ± 7 cubic millimeters
[2]; [31]
  Tumour size (mean volume of the tumour): 100 ± 4 cubic millimeters
[2]; [32]
  Tumour size (mean volume of the tumour): 90 ± 8 cubic millimeters
[2]; [33]
  Tumour size (mean volume of the tumour): 70 ± 8 cubic millimeters
[2]; [34]
  Tumour size (mean volume of the tumour): 65 ± 9 cubic millimeters
